Tests used:
[1] = target: T1, human Fpn-GFP fusion construct (Homo sapiens, UniProt Q9NP59); assay: Inhibition of ferroportin mediated iron export activity in an iron response assay (BLAzer); format: cell-based; settings: average (AVE) of multiple measurements; HEK-293 cell line #354
T1 construct: expressed in transfected cells; host or cells: HEK-293 cell line #354 (derivative of HEK-293 Tet-ON Advanced, Clontech)
T1 sequence (Q9NP59 1-571): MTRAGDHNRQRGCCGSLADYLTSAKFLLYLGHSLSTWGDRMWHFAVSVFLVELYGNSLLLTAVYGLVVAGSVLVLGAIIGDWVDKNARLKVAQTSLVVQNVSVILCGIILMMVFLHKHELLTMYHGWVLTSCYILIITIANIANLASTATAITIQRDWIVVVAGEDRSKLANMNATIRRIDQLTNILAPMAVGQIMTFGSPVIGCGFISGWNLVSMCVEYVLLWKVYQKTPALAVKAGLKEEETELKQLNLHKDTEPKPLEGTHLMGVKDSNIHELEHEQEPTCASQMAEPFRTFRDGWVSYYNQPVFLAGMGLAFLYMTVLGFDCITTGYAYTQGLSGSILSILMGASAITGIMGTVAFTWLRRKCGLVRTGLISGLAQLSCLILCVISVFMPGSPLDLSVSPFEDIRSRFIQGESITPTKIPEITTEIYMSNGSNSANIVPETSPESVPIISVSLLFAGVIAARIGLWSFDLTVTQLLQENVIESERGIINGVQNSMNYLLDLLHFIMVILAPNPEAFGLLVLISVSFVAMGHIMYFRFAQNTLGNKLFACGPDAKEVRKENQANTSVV
Source text: Intracellular iron levels are indirectly measured in this assay by monitoring the activity of a beta-lactamase (BLA) reporter gene fused to the human ferritin promoter and the associated iron regulatory element (IRE) contained within the 5′ untranslated region of the ferritin mRNA. Expression of ferroportin (Fpn) in such a cell line leads to iron efflux and lower iron levels as reflected by lower activity of the reporter gene. On the other hand, inhibition of Fpn-mediated iron efflux results in elevated cellular iron levels which is detected as increased reporter gene activity. Small molecular weight Fpn inhibitor compounds were tested for dose-dependent effects in this in vitro iron response assay as described below.
The HEK-293 cell line #354 was generated by stable integration of (i) a human Fpn-GFP fusion construct inserted in a derivative of the doxycycline-inducible pTRE-Tight-BI plasmid (Clontech, Cat. 631068) and (ii) a human ferritin promoter-BLA reporter gene into a derivative of the HEK-293 Tet-ON Advanced cell line (Clontech). […] After overnight incubation, 10 μl/well of dilution series of the test compounds were added in quadruplicates and plates were further incubated overnight at 37° C. with 5% CO2. Cells were washed 3 times with HBSS leaving 25 μl per well. BLA activity was detected by adding 5 μl/well of the GeneBlazer reagent CCF4-AM (Invitrogen, Cat. K1085) to the cells. After incubation of the plates in the dark at 18° C. for 60 min., blue and green fluorescence signals were measured in a Safire2 fluorescence plate reader (Tecan) with excitation at 410 nm and emissions at 458 nm (blue) and 522 nm (green). The ratio of blue/green fluorescence as a measure for BLA activity was calculated and EC50 values were determined with the calculated blue/green fluorescence ratios as described for the hepcidin internalization assay.

[2] = target: T2, human Fpn-GFP fusion protein (Homo sapiens, UniProt Q9NP59); assay: Ferroportin Internalization and Degradation Assay (FACS); format: cell-based; settings: average (AVE) of multiple measurements, Fpn-GFP MFI, HEK-293 cell line #354, FACS
T2 construct: expressed in transfected cells; host or cells: HEK-293 cell line #354 (derivative of HEK-293 Tet-ON Advanced, Clontech)
T2 sequence (Q9NP59 1-571): T1 sequence (Q9NP59 1-571)
Method: Growing HEK-293 #354 cells in doxycycline containing media induced expression of human Fpn-GFP fusion protein on the cell surface. […] Small molecular weight Fpn inhibitor compounds were tested for dose-dependent effects on the Fpn-GFP mean fluorescence intensity (MFI) on HEK-293 cell line #354, as described below. HEK #354 cells were harvested from ca. 80% confluent cultures, seeded at 0.6×10^6 cells/ml in DMEM/F12 GlutaMAX™ medium (Invitrogen, Cat. 31331-028) containing 10% FBS (Clontech, Cat. 631106), 1% Penicillin-Streptomycin (Invitrogen, Cat. 15140-122), 200 μg/ml Hygromycin B (Invitrogen, Cat. 10687-010), Blasticidin 5 μg/ml, (Invitrogen, Cat. R210-01), 4 μg/ml doxycycline (Clontech, Cat. 631311), 50 μl per well of 384 well plates (Greiner; Cat. 781091) and grown at 37° C. with 5% CO2. After overnight incubation, 10 μl/well of dilution series of the test compounds were added in quadruplicates and plates were further incubated overnight at 37° C. with 5% CO2. Cells were washed once with FACS buffer (PBS containing 1% FBS, 2 mM EDTA and 0.05% NaN3), harvested in FACS buffer with 0.5 μg/ml propidium iodide (Sigma, Cat. P4864) and analyzed in a flow cytometer (CANTO™ II, BD Biosciences) equipped with high throughput sampler. Live HEK #354 cells were gated as propidium iodide negative population and analyzed for expression of Fpn-GFP.

Structure (SMILES)	EC50 [1] [nM]	EC50 [2] [nM]	DC50 ([2]; read-out: EC50 (the source's name)) [nM]
O=C(NCc1ncccc1F)c1cnc(CCNCCc2nc3ccccc3[nH]2)o1 [Example 1]	930	220	–
O=C(NCc1ncccc1F)c1cnn(CCNCCc2cc3ccccc3[nH]2)c1 [Example 277]	170	–	69
O=C(NCc1ncccc1F)c1cnc(C2CN(CCc3nc4ccccc4[nH]3)C2)o1 [Example 2]	1030	630	–
O=C(NCc1ncccc1F)c1csc(CCNCc2nc3ccccc3[nH]2)n1 [Example 40]	1450	810	–

Reference: patent US11066399B2, “Ferroportin inhibitors” (Vifor (International) AG, priority 2015, dated 2021)
